Data on three molecules can be found in patent EP3505218B1, “A GENTLE DETERGENT COMPOSITION FOR GREASY AND ACNEIC SKINS” (Unifarco S.p.A., priority 2017, dated 2019).

Series [1] can be described thus: Solubility of the raw material. The format is physicochemical. Particulars: needs to be pre-dissolved at 80°C in propylene glycol.
A further series deals with Propionibacterium acnes. Particulars: cited from earlier work; for antibacterial / antimicrobial activity against Propionibacterium Acnes: raw material description, PCA ethyl cocoyl arginate at a pH lower than 7.

With `CCCCCCCCCCCC(=O)N[C@@H](CCCNC(=N)N)C(=O)O` [Lauroyl arginine], in series [1], the solubility entry is “poorly soluble”.

Turning to PCA ethyl cocoyl arginate, the “antibacterial / antimicrobial activity against Propionibacterium Acnes” value in the series on Propionibacterium acnes is listed as “antimicrobial activity”.

Turning to Laureth-7 citrate, the “effectiveness as antibacterial against Propionibacterium acnes” value in the series on Propionibacterium acnes (compared with other surfactants, US2008/0070986) was 2 magnitude orders less effective. Further, the “antibacterial / antimicrobial activity against Propionibacterium Acnes” value with Propionibacterium acnes was “known antibacterial properties”.
